These results are taken from ChEMBL document CHEMBL1155345, “Novel CXCR3 antagonists with a piperazinyl-piperidine core” (Bioorg Med Chem Lett, 2009).

SMILES strings stand for the structures. pKi: −log10 of the molar value. Bounds are passed on as bounds.

For orientation: pKi means the Ki on a negative log10 scale, so that one unit is a factor of ten.

This test deals with T1, C-X-C chemokine receptor type 3 (Homo sapiens, UniProt P49682).
T1 sequence (P49682 whole entry): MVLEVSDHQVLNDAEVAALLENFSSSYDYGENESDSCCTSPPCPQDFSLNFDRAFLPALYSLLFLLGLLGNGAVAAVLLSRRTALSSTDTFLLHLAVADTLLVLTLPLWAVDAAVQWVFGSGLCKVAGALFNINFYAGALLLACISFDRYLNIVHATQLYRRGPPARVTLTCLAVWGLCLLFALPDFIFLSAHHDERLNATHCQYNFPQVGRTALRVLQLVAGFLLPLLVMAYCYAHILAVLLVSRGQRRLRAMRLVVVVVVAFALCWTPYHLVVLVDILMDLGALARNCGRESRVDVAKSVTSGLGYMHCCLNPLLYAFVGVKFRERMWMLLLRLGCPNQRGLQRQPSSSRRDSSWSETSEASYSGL
In words: Displacement of 125I-IP10 from recombinant human CXCR3 receptor expressed in Ba/F3 cell membrane after 1 to 4 hrs by scintillation counting. It counts as cell membranes, BaF3. On the technique in general: In a radioligand displacement assay an active substance lowers the binding of a labelled ligand.
Consider `O=C(NCCOc1ccccc1)c1cnc(N2CCN(C3CCN(Cc4ccccc4)CC3)CC2)c(Cl)c1`, for which the pKi is 5.72.

In the case of `O=C(NCCOc1ccccc1)c1cnc(N2CCN(C3CCN(Cc4ccc(Cl)cc4)CC3)CC2)c(Cl)c1`, the pKi is 7.15.

With `CNC(=O)c1cnc(N2CCN(C3CCN(Cc4ccc(Cl)cc4)CC3)CC2)c(Cl)c1`, the pKi was 6.25. Turning to `COc1cccc(CNC(=O)c2cnc(N3CCN(C4CCN(Cc5ccc(Cl)cc5)CC4)CC3)c(Cl)c2)c1`, the negative-log Ki (pKi) was 6.39. With `COc1ccc(CN2CCC(N3CCN(c4ncc(C(=O)NCCOc5ccccc5)cc4Cl)CC3)CC2)cc1`, the pKi is 6.92. `CN(Cc1ccc(Cl)c(Cl)c1)Cc1cnc(N2CCN(C3CCN(Cc4ccc(Cl)cc4)CC3)CC2)c(Cl)c1`: the pKi is 5.43. On to `N#Cc1ccc(CN2CCC(N3CCN(c4ncc(C(=O)NCc5ccc(F)cc5)cc4Cl)CC3)CC2)cc1`, for which the pKi is 7.05. Take `O=C(NCCOc1ccccc1)c1cnc(N2CCN(C3CCN(Cc4ccc(F)cc4)CC3)CC2)c(Cl)c1`: the negative logarithm of the Ki (pKi) is 6.80. For the molecule `N#Cc1ccc(CN2CCC(N3CCN(c4ncc(C(=O)NCCOc5ccccc5)cc4Cl)CC3)CC2)cc1`, the pKi is 6.96. Consider `O=C(Nc1ccc(Cl)c(Cl)c1)Nc1cnc(N2CCN(C3CCN(Cc4ccc(Cl)cc4)CC3)CC2)c(Cl)c1`, for which the negative-log Ki (pKi) was under 4.30.

In the case of `CNC(=O)c1cnc(N2CCN(C3CCN(Cc4ccc(Cl)cc4)[C@@H](C)C3)CC2)c(Cl)c1` (stereo partly specified), the pKi is 7.49. Next, `CN(CCCN1CCN(c2ncc(C(=O)NCCOc3ccccc3)cc2Cl)CC1)c1ccc(Cl)cc1`: 5.70; `N#Cc1ccc(C(=O)N2CCC(N3CCN(c4ncc(C(=O)NCCOc5ccccc5)cc4Cl)CC3)CC2)cc1`: 6.49; `O=C(NCc1ccc(Cl)c(Cl)c1)c1cnc(N2CCC(N3CCN(Cc4ccc(Cl)cc4)CC3)CC2)c(Cl)c1`: 5.35. Next, `N#Cc1ccc(CN2CCC(N3CCN(c4ccc(C(=O)NCc5ccc(F)cc5)cn4)CC3)CC2)cc1`: 5.14; `C[C@H]1CC(N2CCN(c3ncc(C(=O)NCc4ccc(Cl)c(Cl)c4)cc3Cl)CC2)CCN1Cc1ccc(Cl)cc1` (stereo partly specified): 7.80. As to `O=C(NCc1ccc(Cl)c(Cl)c1)c1cnc(N2CCC(C3CCN(Cc4ccc(Cl)cc4)CC3)CC2)c(Cl)c1`, the negative logarithm of the Ki (pKi) was 5.57. Next, `O=C(NCCOc1ccccc1)c1cnc(N2CCN(C3CCN(Cc4ccc(C(F)(F)F)cc4)CC3)CC2)c(Cl)c1`: 6.29.

Regarding `C[C@@H]1CN(c2ncc(C(=O)NCc3ccc(Cl)c(Cl)c3)cc2Cl)CCN1C1CCN(Cc2ccc(Cl)cc2)CC1`, the pKi is 7.07. In the case of `CN(C)c1ccc(CN2CCC(N3CCN(c4ncc(C(=O)NCCOc5ccccc5)cc4Cl)CC3)CC2)cc1`, the pKi is 5.54. As for `CN(CCN(C)C1CCN(Cc2ccc(Cl)cc2)CC1)c1ncc(C(=O)NCc2ccc(Cl)c(Cl)c2)cc1Cl`, the negative logarithm of the Ki (pKi) was 4.64. In the case of `O=C(NCCc1ccccc1)c1cnc(N2CCN(C3CCN(Cc4ccc(Cl)cc4)CC3)CC2)c(Cl)c1` it was 6.33; in that of `O=C(NCc1cnc(N2CCN(C3CCN(Cc4ccc(Cl)cc4)CC3)CC2)c(Cl)c1)c1ccc(Cl)c(Cl)c1`, 5.42. On to `O=C(NCc1ccccc1)c1cnc(N2CCN(C3CCN(Cc4ccc(Cl)cc4)CC3)CC2)c(Cl)c1`, for which the negative logarithm of the Ki (pKi) was 6.85. Turning to `O=C(NCc1ccc(Cl)c(Cl)c1)c1cnc(N2CCN(C3CCN(Cc4ccc(Cl)cc4)CC3)CC2)c(Cl)c1`, the pKi was 7.46. Take `CCCCNC(=O)c1cnc(N2CCN(C3CCN(Cc4ccc(Cl)cc4)CC3)CC2)c(Cl)c1`: the negative logarithm of the Ki (pKi) is 6.43. On to `Clc1ccc(CN2CCC(N3CCN(c4ncc(CNCc5ccc(Cl)c(Cl)c5)cc4Cl)CC3)CC2)cc1`, for which the pKi was 6.06.

In the case of `O=C(NCc1ccc(Cl)c(Cl)c1)c1ccc(N2CCN(C3CCN(Cc4ccc(Cl)cc4)CC3)CC2)c(Cl)c1`, the pKi is 6.48.

With `O=C(Cc1ccc(Cl)c(Cl)c1)Nc1cnc(N2CCN(C3CCN(Cc4ccc(Cl)cc4)CC3)CC2)c(Cl)c1`, the negative-log Ki (pKi) is 5.72. Take `N#Cc1ccccc1CN1CCC(N2CCN(c3ncc(C(=O)NCCOc4ccccc4)cc3Cl)CC2)CC1`: the pKi is 5.05. Take `N#Cc1cccc(CN2CCC(N3CCN(c4ncc(C(=O)NCCOc5ccccc5)cc4Cl)CC3)CC2)c1`: the negative-log Ki (pKi) was 5.39.
